Measured values published in patent US20160303127A1, “COMBINATION THERAPY WITH C-MET AND EGFR ANTAGONISTS” (Genentech, Inc., priority 2008, published 2016).
Where “and” joins values, the source holds several entries; their conditions need not be identical. Equal values may be shown once. Entries after “also recorded” stand apart in the source; their conditions may differ.

B1: MetMAb: Anti-c-met monovalent monoclonal antibody MetMAb (rhuOA5D5v2) (WO2007/063816) (antibody, chains of the INN, looked up, V domains shown)
VH: EVQLVESGGGLVQPGGSLRLSCAASGYTFTSYWLHWVRQAPGKGLEWVGMIDPSNSDTRFNPNFKDRFTISADTSKNTAYLQMNSLRAEDTAVYYCATYRSYVTPLDYWGQGTLVTVSS
VL: DIQMTQSPSSLSASVGDRVTITCKSSQSLLYTSSQKNYLAWYQQKPGKAPKLLIYWASTRESGVPSRFSGSGSGTDFTLTISSLQPEDFATYYCQQYYAYPWTFGQGTKVEIK
modifications: one-armed

Experiments:
[1] = system: NCI-H596 cells; assay: NCI-H596 cell viability assay (Celltiter-Glo) with TGFα +/- HGF; assay type: cell-based, human
Description: Cells: NCI-H596 cells were obtained from the American Type Culture Collection (ATCC) and were maintained in RPMI 1640 supplemented with 10% fetal bovine serum (FBS; Sigma, St. Louis, Mo.), and 2 mM L-glutamine. Cell assay media was changed as described below depending upon the experiment.
Therapeutics and Growth factors: Erlotinib and MetMAb were from Genentech, Inc., as described above. HGF and TGFα were generated at Genentech.
Cell Viability Assays: For cell viability assays, cells were plated in quadruplicate at 1×10^3 cells per well in 384-well plates in RPMI containing 0.5% FBS (assay medium) overnight, prior to stimulation with assay medium containing 3 nM TGF-a+/−HGF. Erlotinib was added at multiple concentrations and 72 hours later, cell viability was measured using the Celltiter-Glo Luminescent Cell Viability Assay (Promega, Madison, Wis.).
To determine whether activation of the c-met pathway could change the response of NCI-N596 cells to erlotinib, cells were stimulated with TGFα, treated with erlotinib and/or HGF, then cell viability was assayed.

[2] = system: ERK-1/2; assay: phospho-ERK-1/2 in NCI-H596 hu-HGF-Tg-SCID xenograft tumors (immunoblot); assay type: in vivo, human; conditions: MetMAb 30 mg/kg 24 h, erlotinib 150 mg/kg 6 h prior to harvest, average of 5 animals
Description: Tumors were allowed to grow to 200-300 mm^3 prior to treatment. Dosing was performed as described in Table 8. Briefly, MetMAb (30 mg/kg) or MetMAb buffer was dosed at time zero hours (0 hr) and methylcellulose tween vehicle (MCT) or erlotinib (150 mg/kg) was dosed at time 18 hours (18 hr). Mice were euthanized and tumors and plasma collected at time 24 hours (24 hr). Tumors were snap frozen in liquid nitrogen and then kept at −70° C. until they were processed for immunoprecipitation and immunoblotting.
(§1) Immunoprecipitations and Immunoblotting: To process tumors for protein analysis, tumors were first homogenized using a glass dounce with lysis buffer (Cell Signaling Technology, Inc., Danvers, Mass.), supplemented with 1 mM PMSF, additional protease inhibitor cocktail, and phosphatase inhibitor cocktail I and II (Sigma, Inc., St. Louis, Mo.). Lysates were incubated on ice for one hour and then centrifuged at 14,000×g for five minutes and supernatants collected. Protein concentrations were determined using the BCA™ Protein Assay Kit (Pierce, Inc., Rockford, Ill.) and samples were immunoblotted. […] Samples were then analyzed by SDS-PAGE and immunoblotting. […] Immunoblots were imaged and phospho-protein levels were quantified and normalized to total protein levels (e.g. pEGFR over total EGFR) using an Odyssey imager (LI-COR Biosciences, Lincoln, Nebr.). […]

[3] = system: Akt; assay: phospho-Akt in NCI-H596 hu-HGF-Tg-SCID xenograft tumors (immunoblot); assay type: in vivo, human; conditions: MetMAb 30 mg/kg 24 h, erlotinib 150 mg/kg 6 h prior to harvest, average of 5 animals
Description: NCI-H596 hu-HGF-Tg-SCID xenograft tumors: NCI-H596 xenografts were established in hu-HGF-Tg-SCID mice as described in Example 4. Tumors were allowed to grow to 200-300 mm^3 prior to treatment. Dosing was performed as described in Table 8. Briefly, MetMAb (30 mg/kg) or MetMAb buffer was dosed at time zero hours (0 hr) and methylcellulose tween vehicle (MCT) or erlotinib (150 mg/kg) was dosed at time 18 hours (18 hr). Mice were euthanized and tumors and plasma collected at time 24 hours (24 hr). Tumors were snap frozen in liquid nitrogen and then kept at −70° C. until they were processed for immunoprecipitation and immunoblotting.
as §1, with “Lysates were incubated on ice for one hour and then centrifuged at 14,000×g for five minutes and supernatants collected.” left out

| Molecule | sensitivity (response) of cells to erlotinib in the presence of HGF ([1]; TGFα plus HGF 0.5 to 50 ng/ml, 72 hours) | cell viability when grown in the presence of erlotinib and TGFα ([1]; TGFα, no HGF) | pERK1/2/total ERK1/2 ([2]; listed as Erlotinib) | pAkt/total Akt ([3]; listed as Erlotinib) | effect of MetMAb on erlotinib sensitivity (cell viability) ([1]; TGFα and HGF (50 ng/ml), MetMAb 1 μM, varying erlotinib) | pERK1/2/total ERK1/2 [2] | pAkt/total Akt [3] |
| --- | --- | --- | --- | --- | --- | --- | --- |
| C#Cc1cccc(Nc2ncnc3cc(OCCOC)c(OCCOC)cc23)c1 [erlotinib, N-(3-ethynylphenyl)-6,7-bis(2-methoxyethoxy)-4-quinazolinamine] | Reduction in relative response; also recorded: dramatically reduced in a dose-dependent manner; also recorded: attenuated response | reduced cell viability | 39% (+/−8.9%) % of vehicle control and 39 (±8.9) % of vehicle control | 45% (+/−25.7%) % of vehicle control and 45 (±25.7) % of vehicle control |  |  |  |
| B1 |  |  |  |  | dramatically restored erlotinib sensitivity | 72% (+/−40.3%) % of vehicle control and 72 (±40.3) % of vehicle control | 72% (+/−27.9%) % of vehicle control and 72 (±27.9) % of vehicle control |
